Results from the NIST ThermoML archive (doi:10.1021/je500079y).

Assay: wn = mass fraction of the nth substance listed
Settings: 101 kPa, Liquid, Vibrating tube method

OC[C@@H](O)[C@@H](O)[C@H](O)[C@@H](O)CO [D-sorbitol] + CCOS(=O)(=O)[O-].CCn1cc[n+](C)c1
mass density [kg/m3]
Settings	w1 = 0.037	w1 = 0.056	w1 = 0.113	w1 = 0.16	w1 = 0.182	w1 = 0.202
278.15 K	1255.77	1258.66	1267.3	1274.68	1278.11	1281.13
283.15 K	1252.33	1255.52	1263.85	1271.21	1274.65	1277.67
288.15 K	1248.88	1251.77	1260.41	1267.76	1271.19	1274.21
293.15 K	1245.42	1248.33	1256.99	1264.34	1267.76	1270.77
298.15 K	1241.97	1244.88	1253.56	1260.93	1264.36	1267.36
303.15 K	1238.54	1241.45	1250.14	1257.52	1260.96	1263.97
308.15 K	1235.13	1238.04	1246.73	1254.11	1257.55	1260.56
313.15 K	1231.74	1234.65	1243.33	1250.71	1254.15	1257.16
318.15 K	1228.36	1231.27	1239.95	1247.32	1250.77	1253.77
323.15 K	1225	1227.91	1236.59	1243.95	1247.4	1250.4
328.15 K	1221.65	1224.56	1233.25	1240.6	1244.04	1247.03
333.15 K	1218.32	1221.23	1229.92	1237.26	1240.7	1243.69
338.15 K	1215	1217.9	1226.61	1233.93	1237.37	1240.35
343.15 K	1211.69	1214.59	1223.3	1230.62	1234.06	1237.03

CCOS(=O)(=O)[O-].CCn1cc[n+](C)c1 [1-ethyl-3-methylimidazolium ethyl sulfate] + O=C[C@H](O)[C@@H](O)[C@H](O)[C@H](O)CO
mass density [kg/m3]
Settings	w2 = 0.046	w2 = 0.059	w2 = 0.097	w2 = 0.134	w2 = 0.154	w2 = 0.18
278.15 K	1260.18	1263.04	1271.43	1279.83	1284.18	1290.02
283.15 K	1256.74	1259.61	1268.01	1276.43	1280.78	1286.63
288.15 K	1253.31	1256.19	1264.58	1273.02	1277.37	1283.21
293.15 K	1249.88	1252.77	1261.19	1269.61	1273.96	1279.8
298.15 K	1246.45	1249.35	1257.81	1266.25	1270.6	1276.37
303.15 K	1243.04	1245.93	1254.43	1262.9	1267.26	1273
308.15 K	1239.63	1242.53	1251.04	1259.54	1263.91	1269.64
313.15 K	1236.25	1239.14	1247.66	1256.17	1260.56	1266.26
318.15 K	1232.88	1235.77	1244.29	1252.82	1257.21	1262.88
323.15 K	1229.52	1232.42	1240.94	1249.47	1253.87	1259.51
328.15 K	1226.18	1229.08	1237.6	1246.13	1250.54	1256.14
333.15 K	1222.86	1225.74	1234.28	1242.81	1247.23	1252.8
338.15 K	1219.54	1222.46	1230.97	1239.5	1243.93	1249.49
343.15 K	1216.24	1219.17	1227.66	1236.2	1240.64	1246.21

O=C(CO)[C@@H](O)[C@H](O)[C@H](O)CO [D-fructose] + CCOS(=O)(=O)[O-].CCn1cc[n+](C)c1
mass density [kg/m3]
Settings	w1 = 0.069	w1 = 0.104	w1 = 0.171	w1 = 0.248	w1 = 0.266	w1 = 0.307
278.15 K	1265.07	1272.55	1287.93	1306.03	1310.46	1320.13
283.15 K	1261.63	1269.11	1284.51	1302.63	1307.07	1316.76
288.15 K	1258.21	1265.68	1281.07	1299.21	–	1313.36
293.15 K	1254.78	1262.28	1277.63	1295.77	1300.21	1309.93
298.15 K	1251.35	1258.88	1274.21	1292.29	1296.72	1306.43
303.15 K	1247.93	1255.47	1270.78	1288.73	1293.13	1302.82
308.15 K	1244.5	1252.05	1267.3	1285.14	1289.48	1299.08
313.15 K	1241.08	1248.62	1263.76	1281.5	1285.81	1295.34
318.15 K	1237.67	1245.19	1260.19	1277.84	1282.13	1291.62
323.15 K	1234.25	1241.74	1256.61	1274.19	1278.47	1287.95
328.15 K	1230.83	1238.29	1253.07	1270.58	1274.85	1284.29
333.15 K	1227.42	1234.86	1249.57	1267.01	1271.26	1280.66
338.15 K	1224.03	1231.44	1246.09	1263.46	1267.69	1277.05
343.15 K	1220.66	1228.04	1242.65	1259.93	1264.14	1273.45

OC[C@@H](O)[C@H](O)[C@@H](O)CO [xylitol] + CCOS(=O)(=O)[O-].CCn1cc[n+](C)c1
mass density [kg/m3]
Settings	w1 = 0.05	w1 = 0.07	w1 = 0.098	w1 = 0.131	w1 = 0.15	w1 = 0.169
278.15 K	1256.32	1258.74	1261.95	1267.09	1269.01	1271.21
283.15 K	1252.87	1255.31	1258.5	1263.64	1265.56	1267.75
288.15 K	1249.41	1251.86	1255.06	1260.2	1262.12	1264.31
293.15 K	1245.95	1248.4	1251.62	1256.76	1258.69	1260.89
298.15 K	1242.51	1244.96	1248.2	1253.33	1255.25	1257.46
303.15 K	1239.07	1241.53	1244.78	1249.9	1251.82	1254.03
308.15 K	1235.66	1238.11	1241.38	1246.49	1248.41	1250.61
313.15 K	1232.27	1234.72	1238.01	1243.08	1245	1247.2
318.15 K	1228.89	1231.34	1234.65	1239.7	1241.62	1243.81
323.15 K	1225.53	1227.97	1231.3	1236.33	1238.25	1240.44
328.15 K	1222.18	1224.62	1227.97	1232.97	1234.89	1237.08
333.15 K	1218.84	1221.29	1224.64	1229.63	1231.55	1233.73
338.15 K	1215.52	1217.96	1221.33	1226.3	–	1230.39
343.15 K	1212.21	1214.65	1218.02	1222.98	–	1227.06
